Test results published in patent publication US20240173312A1, “Pharmaceutical Composition Comprising a Benzoheterocyclic Compound and Androgen Receptor Pathway Modulator and Application Thereof” (KANGPU BIOPHARMACEUTICALS, LTD., priority 2015, published 2024).
Read-outs that look alike come from different tables or passages of the source.

Tests used:
[1] = tested on: Vcap cells (androgen receptor (+) prostate cancer cells); test: CTG cell proliferation assay (CellTiter-Glo)
Description: (§1) In vitro test of the inhibition effect of the compound in combination with androgen receptor pathway modulators and the like on the prostate cancer cell proliferation.
(§2) The tested compounds were used alone or in combination with other androgen receptor pathway modulators respectively. […] After that, 100 μl of CellTiter-Glo® cell viability assay reagent (Promega, catalogue number G7570) was added to each well and mixed well on a vibrator for 10 minutes to induce cell lysis. The 96-well plate was placed at room temperature for 10 minutes, so as to stabilize its luminescence signal. A white bottom membrane was pasted on the bottom of the plate and the plate was tested using EnSpire.

[2] = tested on: Vcap cells (androgen receptor (+) prostate cancer cells)
Description: as §1, §2

[3] = Homo sapiens, VCaP, 120 h, read-out: Survival rate of Vcap cells, Table 3, tested compound alone
[4] = Homo sapiens, VCaP, 120 h, read-out: Survival rate of Vcap cells, Table 4, tested compound alone
[5] = Homo sapiens, VCaP, 120 h, read-out: Survival rate of Vcap cells, Table 5, tested compound alone
[6] = Homo sapiens, VCaP, 120 h, read-out: Survival rate of Vcap cells, Table 9, tested compound alone
[7] = Homo sapiens, VCaP, 120 h, read-out: Survival rate of Vcap cells, Table 10, tested compound alone
[8] = Homo sapiens, VCaP, 120 h, read-out: Vcap cell proliferation inhibition rate

## Nc1cccc2c1CN(C1CCC(=O)NC1=O)C2=O (stereo not shown) [B001]
[1]; [3]
  viability at 0.1 µM: 92%
  viability at 10 µM: 81.9%
[1]; Homo sapiens, VCaP, 120 h, read-out: Survival rate of Vcap cells, Table 3, tested compound alone, 1.0 μM
  viability at 1 µM: 82.8%
[1]; [4]
  viability at 0.1 µM: 92%
  viability at 10 µM: 81.9%
[1]; Homo sapiens, VCaP, 120 h, read-out: Survival rate of Vcap cells, Table 4, tested compound alone, 1 μM
  viability at 1 µM: 82.8%
[1]; [5]
  viability at 0.1 µM: 87.7%
  viability at 10 µM: 72.3%
[1]; Homo sapiens, VCaP, 120 h, read-out: Survival rate of Vcap cells, Table 5, tested compound alone, 1.0 μM
  viability at 1 µM: 75.3%
[1]; [6]
  viability at 0.1 µM: 83.9%
  viability at 10 µM: 69.1%
[1]; Homo sapiens, VCaP, 120 h, read-out: Survival rate of Vcap cells, Table 9, tested compound alone, 1.0 μM
  viability at 1 µM: 74.8%
[1]; [7]
  viability at 0.1 µM: 83.9%
  viability at 10 µM: 69.1%
[1]; Homo sapiens, VCaP, 120 h, read-out: Survival rate of Vcap cells, Table 10, tested compound alone, 1.0 μM
  viability at 1 µM: 74.7%
[1]; [8]
  inhibition at 0.41 µM: 18.7%
  inhibition at 1.23 µM: 20.7%
  inhibition at 11.11 µM: 20.9%
  inhibition at 33.33 µM: 22%
  inhibition at 100 µM: 19.6%
[1]; Table 3, tested compound 0.1 μM in combination with 1 μM ARN-509
  Survival rate of Vcap cells: 42.0%
[1]; Table 3, tested compound 0.1 μM in combination with 1 μM Enzalutamide
  Survival rate of Vcap cells: 40.3%
[1]; Table 3, tested compound 1.0 μM in combination with 1 μM ARN-509
  Survival rate of Vcap cells: 34.7%
[1]; Table 3, tested compound 1.0 μM in combination with 1 μM Enzalutamide
  Survival rate of Vcap cells: 35.6%
[1]; Table 3, tested compound 10 μM in combination with 1 μM ARN-509
  Survival rate of Vcap cells: 33.5%
[1]; Table 3, tested compound 10 μM in combination with 1 μM Enzalutamide
  Survival rate of Vcap cells: 33.7%
[1]; Table 3, tested compound alone, 1.0 μM
  Survival rate of Vcap cells: 82.8%
[1]; Table 4, tested compound 0.1 μM in combination with 1 μM Abiraterone acetate
  Survival rate of Vcap cells: 78.5%
[1]; Table 4, tested compound 0.1 μM in combination with 1 μM Galeterone
  Survival rate of Vcap cells: 51.1%
[1]; Table 4, tested compound 1 μM in combination with 1 μM Abiraterone acetate
  Survival rate of Vcap cells: 68.0%
[1]; Table 4, tested compound 1 μM in combination with 1 μM Galeterone
  Survival rate of Vcap cells: 43.3%
[1]; Table 4, tested compound 10 μM in combination with 1 μM Abiraterone acetate
  Survival rate of Vcap cells: 62.9%
[1]; Table 4, tested compound 10 μM in combination with 1 μM Galeterone
  Survival rate of Vcap cells: 42.8%
[1]; Table 4, tested compound alone, 1 μM
  Survival rate of Vcap cells: 82.8%
[1]; Table 5, tested compound 0.1 μM in combination with 1 μM ODM-201
  Survival rate of Vcap cells: 52.7%
[1]; Table 5, tested compound 1.0 μM in combination with 1 μM ODM-201
  Survival rate of Vcap cells: 41.4%
[1]; Table 5, tested compound 10 μM in combination with 1 μM ODM-201
  Survival rate of Vcap cells: 37.5%
[1]; Table 5, tested compound alone, 1.0 μM
  Survival rate of Vcap cells: 75.3%
[1]; Table 9, tested compound 0.1 μM in combination with 1 μM ARN-509
  Survival rate of Vcap cells: 50.9%
[1]; Table 9, tested compound 0.1 μM in combination with 1 μM Enzalutamide
  Survival rate of Vcap cells: 52.1%
[1]; Table 9, tested compound 1.0 μM in combination with 1 μM ARN-509
  Survival rate of Vcap cells: 42.6%
[1]; Table 9, tested compound 1.0 μM in combination with 1 μM Enzalutamide
  Survival rate of Vcap cells: 42.3%
[1]; Table 9, tested compound 10 μM in combination with 1 μM ARN-509
  Survival rate of Vcap cells: 40.9%
[1]; Table 9, tested compound 10 μM in combination with 1 μM Enzalutamide
  Survival rate of Vcap cells: 38.4%
[1]; notes of Table 9: 1.0 μM tested compound in combination with 1.0 μM Enzalutamide
  Cell survival rate: 42.6%
[2]
  inhibition: 21.4%
